From US10428083B2, “Heterocyclylmethyl-thienouracile as antagonists of the adenosine-A2B-receptor” (BAYER PHARMA AKTIENGESELLSCHAFT, priority 2015, dated 2019) come the findings set out here.

human adenosine A2b receptor, sequence (P29275 whole entry): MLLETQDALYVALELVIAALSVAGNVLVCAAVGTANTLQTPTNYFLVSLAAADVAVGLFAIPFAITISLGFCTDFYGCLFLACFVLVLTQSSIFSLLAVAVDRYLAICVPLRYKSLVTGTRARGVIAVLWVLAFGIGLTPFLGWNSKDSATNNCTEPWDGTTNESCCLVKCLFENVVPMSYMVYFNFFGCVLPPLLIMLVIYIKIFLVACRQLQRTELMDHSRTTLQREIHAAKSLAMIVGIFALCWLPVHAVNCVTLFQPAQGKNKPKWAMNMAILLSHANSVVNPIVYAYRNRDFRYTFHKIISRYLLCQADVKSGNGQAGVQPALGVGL

The assay has as its target human adenosine A2b receptor (Homo sapiens (Human), UniProt P29275). Nature of the assay: Cellular in vitro reporter gene test for A2b receptor activity (CHO-K1, CRE-luciferase, NECA stimulation). The assay is classed as cell-based. To be noted: recombinant CHO-K1 cell line, CRE-luciferase reporter, antagonism of EC50 concentration of NECA; in some cases means of several determinations, rounded to two significant figures; read-out: A2b receptor IC50. An outline of the steps: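 CHO-K1 cells with CRE-driven luciferase; antagonists co-incubated with NECA at its EC50, determined in a pre-experiment on each test day. Luciferase read by luminescence 3 h after NECA addition.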
Background: In a reporter assay the amount or activity of a reporter protein is the signal.
As a reminder, the IC50 is the midpoint of a concentration-inhibition curve. On to `Cc1c(CN2CCNC2=S)sc2c1c(=O)n(CC(C)C)c(=O)n2CCC(F)(F)F` [Example 38, 3-Isobutyl-5-methyl-6-[(2-thioxoimidazolidin-1-yl)methyl]-1-(3,3,3-trifluoropropyl)thieno[2,3-d]pyrimidine-2,4(1H,3H)-dione], for which the IC50 was found to be 1.9 nM. As for `COC(=O)N=C1NCCN1Cc1sc2c(c1C)c(=O)n(CC(C)(C)C)c(=O)n2CC1CCCO1` (single isomer, unassigned) [Example 464, Methyl [1-{[3-(2,2-dimethylpropyl)-5-methyl-2,4-dioxo-1-(tetrahydrofuran-2-ylmethyl)-1,2,3,4-tetrahydrothieno[2,3-d]pyrimidin-6-yl]methyl}imidazolidin-2-ylidene]carbamate], the figure is 9.9 nM. The result for `Cc1c(CN2CCNC2=O)sc2c1c(=O)n(CC(C)C)c(=O)n2C` [Example 91, 3-Isobutyl-1,5-dimethyl-6-[(2-oxoimidazolidin-1-yl)methyl]thieno[2,3-d]pyrimidine-2,4(1H,3H)-dione] reads 11 nM; that for `CCn1c(=O)c2c(C)c(CN3CCNC3=O)sc2n(CCOC(C)C)c1=O` [Example 61, 3-Ethyl-1-(2-isopropoxyethyl)-5-methyl-6-[(2-oxoimidazolidin-1-yl)methyl]thieno[2,3-d]pyrimidine-2,4(1H,3H)-dione], 53 nM.

In the case of `COC(C)(C)Cn1c(=O)c2c(C)c(CN3CCNC3=S)sc2n(CCCF)c1=O` [Example 171, 1-(3-Fluoropropyl)-3-(2-methoxy-2-methylpropyl)-5-methyl-6-[(2-thioxoimidazolidin-1-yl)methyl]thieno[2,3-d]pyrimidine-2,4(1H,3H)-dione], the concentration for half-maximal inhibition (IC50) stood at 13 nM. In the case of `CCn1c(=O)c2c(C)c(CN3CCN(C(=O)OC(C)(C)C)S3(=O)=O)sc2n(CCC(F)(F)F)c1=O` [Example 26, tert-Butyl 5-{[3-ethyl-5-methyl-2,4-dioxo-1-(3,3,3-trifluoropropyl)-1,2,3,4-tetrahydrothieno[2,3-d]pyrimidin-6-yl]methyl}-1,2,5-thiadiazolidine-2-carboxylate 1,1-dioxide], the IC50 stood at 11 nM.

As to `Cc1c(CN2CCNC(=O)C2=O)sc2c1c(=O)n(CC(F)(F)F)c(=O)n2CC1CCCO1` (single isomer, unassigned) [Example 489, 6-[(2,3-Dioxopiperazin-1-yl)methyl]-5-methyl-1-(tetrahydrofuran-2-ylmethyl)-3-(2,2,2-trifluoroethyl)thieno[2,3-d]pyrimidine-2,4(1H,3H)-dione], the 50% inhibitory concentration (IC50) was 27 nM. As to `Cc1c(CN2CCNC2=O)sc2c1c(=O)n(C(C)C(F)(F)F)c(=O)n2CCC(F)(F)F` (stereo not shown) [Example 409, 5-Methyl-6-[(2-oxoimidazolidin-1-yl)methyl]-3-(t1,1,1-trifluoropropan-2-yl)-1-(3,3,3-trifluoropropyl)thieno[2,3-d]pyrimidine-2,4(1H,3H)-dione], the half-maximal inhibitory concentration (IC50) worked out at 14 nM. The result for `Cc1c(CN2CCNC2=S)sc2c1c(=O)n(C(C)C)c(=O)n2C` [Example 297, 3-Isopropyl-1,5-dimethyl-6-[(2-thioxoimidazolidin-1-yl)methyl]thieno[2,3-d]pyrimidine-2,4(1H,3H)-dione] reads 17 nM.

Regarding `CCSCCn1c(=O)n(CC)c(=O)c2c(C)c(CN3CCNC3=O)sc21` [Example 309, 3-Ethyl-1-[2-(ethylsulphanyl)ethyl]-5-methyl-6-[(2-oxoimidazolidin-1-yl)methyl]thieno[2,3-d]pyrimidine-2,4(1H,3H)-dione], the 50% inhibitory concentration (IC50) amounted to 36 nM. Turning to `CCn1c(=O)c2c(C)c(CN3CCNC3=NC#N)sc2n(CC2CCCO2)c1=O` (racemic) [Example 259, [1-{[3-Ethyl-5-methyl-2,4-dioxo-1-(tetrahydrofuran-2-ylmethyl)-1,2,3,4-tetrahydrothieno[2,3-d]pyrimidin-6-yl]methyl}imidazolidin-2-ylidene]cyanamide], the IC50 stood at 9.8 nM. `CCSCCn1c(=O)n(CC)c(=O)c2c(C)c(CN3CCNC3=S)sc21` [Example 294, 3-Ethyl-1-[2-(ethylsulphanyl)ethyl]-5-methyl-6-[(2-thioxoimidazolidin-1-yl)methyl]thieno[2,3-d]pyrimidine-2,4(1H,3H)-dione]: the IC50 is 20 nM. As for `Cc1c(CN2CCNC2=NC#N)sc2c1c(=O)n(CC(C)(C)C)c(=O)n2CC1CCCO1` (racemic) [Example 446, [1-{[3-(2,2-Dimethylpropyl)-5-methyl-2,4-dioxo-1-(tetrahydrofuran-2-ylmethyl)-1,2,3,4-tetrahydrothieno[2,3-d]pyrimidin-6-yl]methyl}imidazolidin-2-ylidene]cyanamide], the figure is 19 nM; as for `COCCn1c(=O)c2c(C)c(Cn3cc[nH]c3=O)sc2n(CC2CCCO2)c1=O` (racemic) [Example 346, 3-(2-Methoxyethyl)-5-methyl-6-[(2-oxo-2,3-dihydro-1H-imidazol-1-yl)methyl]-1-(tetrahydrofuran-2-ylmethyl)thieno[2,3-d]pyrimidine-2,4(1H,3H)-dione], 37 nM.

With `Cc1c(CN2CCNC2=O)sc2c1c(=O)n(CC(F)(F)F)c(=O)n2C` [Example 213, 1,5-Dimethyl-6-[(2-oxoimidazolidin-1-yl)methyl]-3-(2,2,2-trifluoroethyl)thieno[2,3-d]pyrimidine-2,4(1H,3H)-dione], the IC50 was determined as 7.6 nM. The result for `CCOCCn1c(=O)c2c(C)c(CN3CCNC3=NC#N)sc2n(CCCF)c1=O` [Example 453, [1-{[3-(2-Ethoxyethyl)-1-(3-fluoropropyl)-5-methyl-2,4-dioxo-1,2,3,4-tetrahydrothieno[2,3-d]pyrimidin-6-yl]methyl}imidazolidin-2-ylidene]cyanamide] reads 72 nM; that for `CCn1c(=O)c2c(C)c(CN3CCNC(=O)C3=O)sc2n(CC2CCCO2)c1=O` (single isomer, unassigned) [Example 476, 6-[(2,3-Dioxopiperazin-1-yl)methyl]-3-ethyl-5-methyl-1-(tetrahydrofuran-2-ylmethyl)thieno[2,3-d]pyrimidine-2,4(1H,3H)-dione], 140 nM; that for `Cc1c(Cn2nc[nH]c2=O)sc2c1c(=O)n(C(C)C)c(=O)n2CCCF` [Example 423, 1-(3-Fluoropropyl)-3-isopropyl-5-methyl-6-[(5-oxo-4,5-dihydro-1H-1,2,4-triazol-1-yl)methyl]thieno[2,3-d]pyrimidine-2,4(1H,3H)-dione], 55 nM. The result for `Cc1c(CN2CCNC2=S)sc2c1c(=O)n(CC(C)C)c(=O)n2CC(F)F` [Example 143] reads 3 nM; that for `CCn1c(=O)c2c(C)c(Cn3cc(C)[nH]c3=O)sc2n(CCC(F)(F)F)c1=O` [Example 250, 3-Ethyl-5-methyl-6-[(4-methyl-2-oxo-2,3-dihydro-1H-imidazol-1-yl)methyl]-1-(3,3,3-trifluoropropyl)thieno[2,3-d]pyrimidine-2,4(1H,3H)-dione], 18 nM; that for `COCCn1c(=O)c2c(C)c(CN3CCNC3=NC(=O)OC)sc2n(CC2CCO2)c1=O` (single isomer, unassigned) [Example 389, Methyl [1-{[3-(2-methoxyethyl)-5-methyl-1-(oxetan-2-ylmethyl)-2,4-dioxo-1,2,3,4-tetrahydrothieno[2,3-d]pyrimidin-6-yl]methyl}imidazolidin-2-ylidene]carbamate], 87 nM. In the case of `Cc1c(CN2CCNC2=NC#N)sc2c1c(=O)n(CC(C)(C)C)c(=O)n2CC1CCCO1` (single isomer, unassigned) [Example 448, [1-{[3-(2,2-Dimethylpropyl)-5-methyl-2,4-dioxo-1-(tetrahydrofuran-2-ylmethyl)-1,2,3,4-tetrahydrothieno[2,3-d]pyrimidin-6-yl]methyl}imidazolidin-2-ylidene]cyanamide], the IC50 was found to be 17 nM. As for `COCCn1c(=O)n(CC(C)OC)c(=O)c2c(C)c(CN3CCNC3=O)sc21` (single isomer, unassigned) [Example 234, 1-(2-Methoxyethyl)-3-(2-methoxypropyl)-5-methyl-6-[(2-oxoimidazolidin-1-yl)methyl]thieno[2,3-d]pyrimidine-2,4(1H,3H)-dione], the figure is 7.8 nM; as for `COCCn1c(=O)n(CC(C)(C)OC)c(=O)c2c(C)c(CN3CCNC3=S)sc21` [Example 172, 1-(2-Methoxyethyl)-3-(2-methoxy-2-methylpropyl)-5-methyl-6-[(2-thioxoimidazolidin-1-yl)methyl]thieno[2,3-d]pyrimidine-2,4(1H,3H)-dione], 7.3 nM. The result for `Cc1c(Cn2cc[nH]c2=O)sc2c1c(=O)n(C(C)C)c(=O)n2CC1CCCO1` (single isomer, unassigned) [Example 248, 3-Isopropyl-5-methyl-6-[(2-oxo-2,3-dihydro-1H-imidazol-1-yl)methyl]-1-(tetrahydrofuran-2-ylmethyl)thieno[2,3-d]pyrimidine-2,4(1H,3H)-dione] reads 5.1 nM. As for `Cc1c(CN2CCNC(=O)C2=O)sc2c1c(=O)n(C(C)C(F)(F)F)c(=O)n2CCC(F)(F)F` (racemic) [Example 490, 6-[(2,3-Dioxopiperazin-1-yl)methyl]-5-methyl-3-(1,1,1-trifluoropropan-2-yl)-1-(3,3,3-trifluoropropyl)thieno[2,3-d]pyrimidine-2,4(1H,3H)-dione], the figure is 19 nM. Turning to `COCCn1c(=O)c2c(C)c(CN3CCNC3=NC#N)sc2n(CC2CCO2)c1=O` (single isomer, unassigned) [Example 365, [1-{[3-Methoxyethyl-5-methyl-1-(oxetan-2-ylmethyl)-2,4-dioxo-1,2,3,4-tetrahydrothieno[2,3-d]pyrimidin-6-yl]methyl}imidazolidin-2-ylidene]cyanamide], the IC50 turned out to be 110 nM. Consider `Cc1c(CN2CCNC2=O)sc2c1c(=O)n(CC(C)C)c(=O)n2CC1COC1` [Example 199, 3-Isobutyl-5-methyl-1-(oxetan-3-ylmethyl)-6-[(2-oxoimidazolidin-1-yl)methyl]thieno[2,3-d]pyrimidine-2,4(1H,3H)-dione], for which the IC50 worked out at 8.1 nM.
